Source: patent publication US9382216B2, “Substituted morpholines as modulators for the calcium sensing receptor” (LUPIN LIMITED, priority 2011, dated 2016)
Where a name gives a salt, the structure may show the parent alone.

Each compound was assayed against T1, hCaSR (Calcium sensing receptor) in stably transfected HEK293 cells (Homo sapiens, UniProt P41180) (assay: In-vitro assay of calcimimetics through modulation of calcium sensing receptor (CaSR): increase in intracellular calcium, FLIPR). Conditions: HEK293 cells expressing hCaSR; intracellular calcium (Fluo4NW, FLIPR); 0.3 mM CaCl2; 8-point assay; read-out: EC50 in range.
T1 construct: expressed in transfected cells; host or cells: HEK293 (stably transfected)
T1 sequence (P41180 20-1078): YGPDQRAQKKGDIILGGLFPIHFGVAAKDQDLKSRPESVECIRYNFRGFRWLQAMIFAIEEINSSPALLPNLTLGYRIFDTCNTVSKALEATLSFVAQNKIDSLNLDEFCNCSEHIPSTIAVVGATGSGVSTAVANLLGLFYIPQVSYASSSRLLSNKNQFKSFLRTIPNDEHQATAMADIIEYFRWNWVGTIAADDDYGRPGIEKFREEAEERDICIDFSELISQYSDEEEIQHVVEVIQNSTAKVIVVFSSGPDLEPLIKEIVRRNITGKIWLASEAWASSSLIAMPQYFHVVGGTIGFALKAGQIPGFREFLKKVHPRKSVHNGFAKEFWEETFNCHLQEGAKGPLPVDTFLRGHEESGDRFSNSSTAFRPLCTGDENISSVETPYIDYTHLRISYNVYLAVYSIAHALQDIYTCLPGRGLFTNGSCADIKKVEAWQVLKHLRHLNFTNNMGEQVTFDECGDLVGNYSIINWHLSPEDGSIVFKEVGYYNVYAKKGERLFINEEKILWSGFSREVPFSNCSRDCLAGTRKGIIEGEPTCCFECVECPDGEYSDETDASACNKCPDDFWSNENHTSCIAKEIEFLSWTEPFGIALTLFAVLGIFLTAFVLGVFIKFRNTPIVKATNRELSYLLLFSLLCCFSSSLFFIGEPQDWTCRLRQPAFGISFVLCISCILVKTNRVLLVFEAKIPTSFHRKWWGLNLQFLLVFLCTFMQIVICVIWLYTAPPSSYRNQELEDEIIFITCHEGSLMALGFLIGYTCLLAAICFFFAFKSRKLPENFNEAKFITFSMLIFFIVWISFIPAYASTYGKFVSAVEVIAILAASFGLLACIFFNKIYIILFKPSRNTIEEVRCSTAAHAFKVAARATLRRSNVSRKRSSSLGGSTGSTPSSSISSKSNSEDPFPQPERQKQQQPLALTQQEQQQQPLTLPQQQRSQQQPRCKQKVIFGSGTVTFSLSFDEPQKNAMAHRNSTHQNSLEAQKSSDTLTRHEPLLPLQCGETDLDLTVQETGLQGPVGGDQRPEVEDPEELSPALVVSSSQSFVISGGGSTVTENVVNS
Type: cell-based
Description: In-Vitro Assay Method of Calcimemtics Through Modulation of Calcium Sensing Receptor (CaSR):
The ability of the compounds to modulate Calcium sensing receptor is determined by measuring an increase in intracellular calcium [Ca^2+i]. Stably transfected HEK293 cells expressing hCaSR_pTriEx-3 hygro vector are developed. Cells are grown overnight on a 96-well plate to 80% confluency in Ham's F12 containing 20% FBS at 37° C., 5% CO2 Subsequently, cells are washed extensively with 20 mM HEPES buffer containing 126 mM NaCl2, 1 mM MgCl2 and 4 mM KCl2 to remove serum components that might interfere with the assay. Cells are loaded with calcium sensing Fluo4NW dye in HEPES base buffer containing 0.1% BSA and 1 mg/ml glucose for 30 minutes to measure changes in intracellular calcium. The activities of the compounds are measured in FLIPR using 0.3 mM CaCl2 in 20 mM HEPES base buffer. The effectiveness of the compound to modulate receptor activity is determined by calculating the EC50 responses for that compound in an 8-point assay and plotted using GraphPad Prism 5.
The compounds prepared were tested using the above assay procedure and the results obtained are given below.

EC50 [nM] | SMILES
50 to 200 | C[C@@H](NCCC1CN(c2ccc(C(F)(F)F)c(C(=O)O)c2)CCO1)c1cccc2ccccc12 (single isomer, unassigned) [Example 110a, hydrochloride]
20 to 50 | C[C@@H](NCC1CN(c2ccc3c(c2)OC(F)(F)O3)C(=O)CO1)c1cccc2ccccc12 (stereo partly drawn) [compound 59, 4-(2,2-Difluorobenzo[d][1,3]dioxol-5-yl)-6-((((R)-1-(naphthalen-1-yl)ethyl)amino)methyl)morpholin-3-one hydrochloride]
< 20 | C[C@@H](NCC1CN(Cc2cccc(F)c2F)C(=O)CO1)c1cccc2ccccc12 (stereo partly drawn) [Example 81, 4-(2,3-Difluorobenzyl)-6-((((R)-1-(naphthalen-1-yl)ethyl)amino)methyl)morpholin-3-one hydrochloride]
20 to 50 | COc1cccc([C@@H](C)NCC2COCCN2c2cccc(F)c2)c1 (some centres unmarked) [compound 15]
< 20 | COc1cccc(N2CCOC(CN[C@H](C)c3cccc4ccccc34)C2)c1 (single isomer, unassigned) [25a]
20 to 50 | Cc1ccc(N2CCOCC2CN[C@H](C)c2cccc3ccccc23)cc1 (single isomer, unassigned) [7b]
20 to 50 | C[C@@H](NCC1CN(c2ccc(F)c(F)c2)C(=O)CO1)c1cccc2ccccc12 (single isomer, unassigned) [62b, hydrochloride]
< 20 | COc1cccc([C@@H](C)NCC2CN(c3cccc(C)c3)CCO2)c1 (stereo partly drawn) [Example 134, (1R)-1-(3-Methoxyphenyl)-N-((4-(m-tolyl)morpholin-2-yl)methyl)ethanamine hydrochloride]
< 20 | COc1cccc(N2CCOCC2CN[C@H](C)c2cccc3ccccc23)c1 (single isomer, unassigned) [5b]
50 to 200 | C[C@@H](NCC1COCCN1Cc1ccccc1)c1cccc2ccccc12 (single isomer, unassigned) [Example-36a]
< 20 | C[C@@H](NCC1CN(Cc2ccc(F)cc2C(F)(F)F)C(=O)CO1)c1cccc2ccccc12 (stereo partly drawn) [Example 82, 4-(4-Fluoro-2-(trifluoromethyl)benzyl)-6-((((R)-1-(naphthalen-1-yl)ethyl)amino)methyl)morpholin-3-one hydrochloride]
50 to 200 | CC(C)N1CC(CN[C@H](C)c2cccc3ccccc23)OCC1=O (single isomer, unassigned) [Example 93b, hydrochloride]
20 to 50 | COc1cccc([C@@H](C)NCC2COCCN2c2cccc(OC)c2)c1 (single isomer, unassigned) [6a]
50 to 200 | C[C@@H](NCCC1CN(c2cccc(OCC(=O)O)c2)CCO1)c1cccc2ccccc12 (single isomer, unassigned) [Example 113a, hydrochloride]
20 to 50 | COc1cccc([C@@H](C)NCC2CN(c3ccc(OC)c(F)c3)C(=O)CO2)c1 (stereo partly drawn) [Example-50, 4-(3-Fluoro-4-methoxyphenyl)-6-((((R)-1-(3-methoxyphenyl)ethyl)amino)methyl)morpholin-3-one]
50 to 200 | Cc1cc(N2CCOC(CN[C@H](C)c3cccc4ccccc34)C2)ccc1C(=O)O (single isomer, unassigned) [Example 136b, hydrochloride]
20 to 50 | C[C@@H](NCC1CN(c2cccc(F)c2)CCO1)c1cccc2ccccc12 (stereo partly drawn) [Example-3, (1R)-N-((4-(3-Fluorophenyl)morpholin-2-yl)methyl)-1-(naphthalen-1-yl)ethanamine hydrochloride]
20 to 50 | C[C@@H](NCC1CN(c2cccc(C(F)(F)F)c2)CCO1)c1cccc2ccccc12 (some centres unmarked) [compound 22]
< 20 | C[C@@H](NCC1CN(CCc2ccc(F)cc2)C(=O)CO1)c1cccc2ccccc12 (single isomer, unassigned) [Example 98a, hydrochloride]

EC50 [nM] | SMILES
20 to 50 | C[C@@H](NCCC1CN(c2ccc(C(F)(F)F)cc2)CCO1)c1cccc2ccccc12 (stereo partly drawn) [Example 105, (1R)-1-(Naphthalen-1-yl)-N-(2-(4-(4-(trifluoromethyl)phenyl)morpholin-2-yl)ethyl)ethanamine]
< 20 | COc1ccc(N2CC(CN[C@H](C)c3cccc4ccccc34)OCC2=O)cc1F (stereo partly drawn) [compound 61, 4-(3-Fluoro-4-methoxyphenyl)-6-((((R)-1-(naphthalen-1-yl)ethyl)amino)methyl)morpholin-3-one hydrochloride]
50 to 200 | COc1cccc([C@@H](C)NCC2CN(c3ccccc3)CCO2)c1 (some centres unmarked) [compound 32]
50 to 200 | COc1cccc([C@@H](C)NCC2COCCN2c2ccc(F)c(F)c2)c1 (some centres unmarked) [compound 12]
< 20 | C[C@@H](NCC1CN(c2cc(C(=O)O)cc(C(F)(F)F)c2)CCO1)c1cccc2ccccc12 (single isomer, unassigned) [Example 150a, hydrochloride]
< 20 | C[C@@H](NCC1CN(c2ccccc2)CCO1)c1cccc2ccccc12 (single isomer, unassigned) [26a]
50 to 200 | COc1cccc([C@@H](C)NCC2COCCN2Cc2ccccc2)c1 (single isomer, unassigned) [Example-37b]
< 20 | C[C@@H](NCC1CN(Cc2cc(F)ccc2F)C(=O)CO1)c1cccc2ccccc12 (single isomer, unassigned) [Example 72a, hydrochloride]
50 to 200 | C[C@@H](NCC1CN(c2ccc(CC(=O)O)cc2)C(=O)CO1)c1cccc2ccccc12 (stereo partly drawn) [compound 60, 2-(4-(2-((((R)-1-(Naphthalen-1-yl)ethyl)amino)methyl)-5-oxomorpholino)phenyl)acetic acid hydrochloride]
< 20 | C[C@@H](NCC1COCCN1c1cccc(F)c1)c1cccc2ccccc12 (some centres unmarked) [Example-9]
< 20 | COc1cccc([C@@H](C)NCC2CN(c3ccc(F)c(F)c3)CCO2)c1 (stereo partly drawn) [Example 135, (1R)-N-((4-(3,4-Difluorophenyl)morpholin-2-yl)methyl)-1-(3-methoxyphenyl)ethanamine hydrochloride]
50 to 200 | COc1cc([C@@H](C)NCC2CN(C3CCCC3)C(=O)CO2)ccc1F (stereo partly drawn) [Example 96, 4-Cyclopentyl-6-((((R)-1-(4-fluoro-3-methoxyphenyl)ethyl)amino)methyl)morpholin-3-one hydrochloride]
< 20 | C[C@@H](NCC1CN(c2ccc(C(F)(F)F)cc2)CCO1)c1cccc2ccccc12 (single isomer, unassigned) [33a]
20 to 50 | COc1cccc([C@@H](C)NCC2COCCN2c2cccc(C(F)(F)F)c2)c1 (single isomer, unassigned) [4a]
20 to 50 | Cc1ccc(N2CCOC(CCN[C@H](C)c3cccc4ccccc34)C2)cc1CCC(=O)O (single isomer, unassigned) [Example 108a, hydrochloride]
50 to 200 | COc1cccc([C@@H](C)NCC2COCCN2c2cccc(C)c2)c1 (single isomer, unassigned) [10a]
50 to 200 | COc1cc([C@@H](C)NCC2CN(c3ccc(F)c(F)c3)C(=O)CO2)ccc1F (single isomer, unassigned) [Example 152b, hydrochloride]
20 to 50 | COc1cc([C@@H](C)NCC2CN(Cc3ccc(F)cc3)C(=O)CO2)ccc1F (single isomer, unassigned) [Example 101a, hydrochloride]
20 to 50 | COc1cccc(N2CCOC(CN[C@H](C)c3cccc4ccccc34)C2)c1 (single isomer, unassigned) [25b]
